Source: US12544374B2, “AZA-quinoline compounds and uses thereof” (Novartis AG, priority 2019, dated 2026)

Tests used:
EZH2 = EZH2 (Homo sapiens (Human), UniProt Q15910); experiment: ELISA (H3K27 methylation) assay in G401 cell; type: cell-based; settings: (b) ELISA Qualified assay, 48 h
Description: Representative compounds of the invention were serially and separately diluted 3-fold in DO to obtain a total of eight or twelve concentrations. Then the compounds were added to G401 cell cultured in 384-well plate at 1:500 dilution to obtain the highest concentration of 20 μM. The cells were further cultured for 48 h before ELISA procedure.
ELISA protocol: Cell lysates were transferred to the wells of a 384-well plate and the final volume was adjusted to 50 μL per well with PBS. The plate was sealed, centrifuged at 2,000 rpm for 2 min and incubated at 4° C. for about 16 h. The plate was washed with TBST buffer (1×TBS (10×TBS: 24.2 g Tris (Sigma, T6066), 80 g NaCl (Sigma, S3014) to 1 L of water and adjust pH to 7.6 with HCl) with 0.1% Tween-20). Blocking buffer (TBST, 5% BSA; 50 μL per well) was added and the plate was incubated for 1 h at rt. The blocking buffer was removed and primary antibody was added (30 μL per well). […] The primary antibody was incubated in the plate at rt for 1 h. The wells were washed with TBST and incubated with secondary antibody for 1 h at rt.
After 1 h of incubation at rt, the wells were washed with TBST. […] The signal was read using a PerkinElmer Envision Reader. The H3K27 methylation readouts were normalized using H3 signal and then percentage inhibition was calculated against the samples treated with DO. The data were fit to a dose response curve using the program Helios to get the IC50 values of the test compound.

[1] = target: wild type PRC2 (wtPRC2) complex (Homo sapiens (Human), UniProt Q15910); experiment: EZH2 LC-MS assay (LC-Qualified); type: biochemical; settings: (a) LC-Qualified assay
Description: Representative compounds of the invention were serially and separately diluted 3-fold in DMSO to obtain twelve concentrations. […] Solutions (6 μL) of 80 nM wild type PRC2 (wtPRC2) complex and 60 μM SAM in reaction buffer (20 mM Tris, pH 8.0, 0.1% BSA, 0.01% Triton, 0.5 mM DTT) were added to the wells that were then incubated with the test compound for 20 min. A 6 μL solution of 3 μM of the substrate peptide H3K27me1 (histone H3[21-44]-K27me1-biotin) and 6 μM regulatory peptide H3K27me3 (histone H3[21-44]-K27me3) in reaction buffer was added to initiate each reaction. […] The data were fit to a dose response equation using the program Helios to get the IC50 values of the test compound.

EZH2, sequence (Q15910 whole entry): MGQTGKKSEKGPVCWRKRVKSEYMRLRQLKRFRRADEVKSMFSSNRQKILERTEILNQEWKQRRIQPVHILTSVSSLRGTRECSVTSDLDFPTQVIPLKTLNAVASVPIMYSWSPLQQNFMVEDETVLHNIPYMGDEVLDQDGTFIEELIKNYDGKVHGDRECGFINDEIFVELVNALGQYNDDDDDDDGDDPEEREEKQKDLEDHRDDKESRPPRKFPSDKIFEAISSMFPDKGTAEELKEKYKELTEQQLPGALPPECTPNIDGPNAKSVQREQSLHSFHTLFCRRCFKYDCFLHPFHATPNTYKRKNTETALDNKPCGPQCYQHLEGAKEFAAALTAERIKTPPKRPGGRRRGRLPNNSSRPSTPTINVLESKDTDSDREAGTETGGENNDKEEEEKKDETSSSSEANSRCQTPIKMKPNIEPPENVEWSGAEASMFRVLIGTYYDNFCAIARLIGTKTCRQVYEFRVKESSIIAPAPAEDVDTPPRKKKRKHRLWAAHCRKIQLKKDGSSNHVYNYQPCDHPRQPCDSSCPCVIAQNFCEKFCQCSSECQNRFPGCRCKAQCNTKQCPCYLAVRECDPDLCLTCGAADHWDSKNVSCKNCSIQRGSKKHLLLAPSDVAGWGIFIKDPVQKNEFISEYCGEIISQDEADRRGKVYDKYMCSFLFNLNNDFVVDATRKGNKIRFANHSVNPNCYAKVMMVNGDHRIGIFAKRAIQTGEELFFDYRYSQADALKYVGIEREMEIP
EZH2, sequence (Q15022 whole entry partner): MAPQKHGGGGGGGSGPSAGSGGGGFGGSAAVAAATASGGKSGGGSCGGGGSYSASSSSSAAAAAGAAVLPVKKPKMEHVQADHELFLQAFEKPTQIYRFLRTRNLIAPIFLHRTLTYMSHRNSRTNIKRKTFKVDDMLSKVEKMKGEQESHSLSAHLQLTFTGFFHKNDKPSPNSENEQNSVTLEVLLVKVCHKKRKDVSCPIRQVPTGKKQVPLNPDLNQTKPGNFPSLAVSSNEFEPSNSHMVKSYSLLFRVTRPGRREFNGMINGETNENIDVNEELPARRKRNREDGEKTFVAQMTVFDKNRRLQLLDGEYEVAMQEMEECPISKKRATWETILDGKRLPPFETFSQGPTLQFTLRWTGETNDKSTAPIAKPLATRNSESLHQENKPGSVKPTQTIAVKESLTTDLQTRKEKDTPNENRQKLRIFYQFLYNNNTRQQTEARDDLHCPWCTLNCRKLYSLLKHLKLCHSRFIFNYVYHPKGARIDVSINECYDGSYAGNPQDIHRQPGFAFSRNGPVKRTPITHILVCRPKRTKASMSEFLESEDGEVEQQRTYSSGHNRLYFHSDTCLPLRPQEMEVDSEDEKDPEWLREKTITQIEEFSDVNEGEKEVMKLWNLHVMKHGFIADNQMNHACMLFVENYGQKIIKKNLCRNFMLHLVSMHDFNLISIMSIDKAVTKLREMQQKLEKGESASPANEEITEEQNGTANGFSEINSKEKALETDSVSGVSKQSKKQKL
EZH2, sequence (O75530 whole entry partner): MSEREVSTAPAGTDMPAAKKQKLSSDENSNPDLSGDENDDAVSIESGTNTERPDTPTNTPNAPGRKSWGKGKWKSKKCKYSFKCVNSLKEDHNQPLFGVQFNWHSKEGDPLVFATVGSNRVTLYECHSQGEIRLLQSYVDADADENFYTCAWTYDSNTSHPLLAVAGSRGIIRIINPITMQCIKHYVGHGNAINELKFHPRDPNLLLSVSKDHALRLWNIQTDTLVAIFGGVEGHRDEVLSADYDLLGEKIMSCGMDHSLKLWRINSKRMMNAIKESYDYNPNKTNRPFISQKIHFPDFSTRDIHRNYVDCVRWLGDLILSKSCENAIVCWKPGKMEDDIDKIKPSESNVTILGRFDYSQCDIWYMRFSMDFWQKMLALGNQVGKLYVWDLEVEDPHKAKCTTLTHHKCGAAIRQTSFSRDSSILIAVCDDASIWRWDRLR
EZH2, sequence (Q09028 whole entry partner): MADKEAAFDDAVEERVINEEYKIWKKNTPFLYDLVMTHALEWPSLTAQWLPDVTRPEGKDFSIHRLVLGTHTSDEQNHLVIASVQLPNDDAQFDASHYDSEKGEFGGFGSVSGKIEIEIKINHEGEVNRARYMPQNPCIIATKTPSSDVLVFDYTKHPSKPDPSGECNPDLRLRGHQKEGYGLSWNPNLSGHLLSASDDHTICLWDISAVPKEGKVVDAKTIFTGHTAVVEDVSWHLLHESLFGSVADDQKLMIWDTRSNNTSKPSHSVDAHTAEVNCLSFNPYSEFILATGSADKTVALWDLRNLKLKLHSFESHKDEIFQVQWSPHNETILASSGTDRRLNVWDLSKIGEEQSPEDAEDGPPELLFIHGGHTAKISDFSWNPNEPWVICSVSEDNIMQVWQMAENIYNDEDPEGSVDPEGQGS
wild type PRC2 (wtPRC2) complex, sequence (Q15910 whole entry): as the sequence (Q15910 whole entry) above
wild type PRC2 (wtPRC2) complex, sequence (Q15022 whole entry partner): as the sequence (Q15022 whole entry partner) above
wild type PRC2 (wtPRC2) complex, sequence (O75530 whole entry partner): as the sequence (O75530 whole entry partner) above
wild type PRC2 (wtPRC2) complex, sequence (Q09028 whole entry partner): as the sequence (Q09028 whole entry partner) above
wild type PRC2 (wtPRC2) complex, sequence (Q6ZN18 whole entry partner): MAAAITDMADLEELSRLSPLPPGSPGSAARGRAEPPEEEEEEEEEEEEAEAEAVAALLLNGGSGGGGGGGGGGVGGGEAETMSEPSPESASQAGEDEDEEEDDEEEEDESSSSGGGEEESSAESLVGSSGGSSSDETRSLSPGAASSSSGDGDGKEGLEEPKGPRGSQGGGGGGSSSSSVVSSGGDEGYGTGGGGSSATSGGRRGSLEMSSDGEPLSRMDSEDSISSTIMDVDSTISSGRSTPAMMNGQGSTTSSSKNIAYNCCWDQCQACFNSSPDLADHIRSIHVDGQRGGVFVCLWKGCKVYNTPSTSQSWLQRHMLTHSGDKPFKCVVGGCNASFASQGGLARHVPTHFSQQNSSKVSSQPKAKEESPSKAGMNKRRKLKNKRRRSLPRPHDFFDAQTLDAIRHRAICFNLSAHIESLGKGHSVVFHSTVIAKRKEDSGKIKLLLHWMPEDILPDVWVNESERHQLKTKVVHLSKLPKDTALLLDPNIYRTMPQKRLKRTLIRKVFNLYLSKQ

Compound	IC50 (EZH2)	IC50 [1]
COc1nccc2ccc(N[C@H]3CC[C@H](CNc4ncc(CC(=O)NC5COC5)cn4)CC3)nc12 [Compound C13, 2-(2-((((1,4-trans)-4-((8-methoxy-1,7-naphthyridin-2-yl)amino)cyclohexyl)methyl)amino)pyrimidin-5-yl)-N-(oxetan-3-yl)acetamide]	0.013 µM	0.042 µM
CN(C)C1CCN(C(=O)Cc2cnc(NC[C@H]3CC[C@H](Nc4ccc5ccnc(Cl)c5n4)CC3)nc2)C1 (stereo partly drawn) [Compound C39, 2-(2-((((1,4-trans)-4-((8-chloro-1,7-naphthyridin-2-yl)amino)cyclohexyl)methyl)amino)pyrimidin-5-yl)-1-(3-(dimethylamino)pyrrolidin-1-yl)ethan-1-one]	0.02 µM	0.081 µM
COc1nccc2ccc(N[C@H]3CC[C@H](CNc4ncc(C(=O)N5CCOCC5)cn4)CC3)nc12 [Compound C10, (2-((((1,4-trans)-4-((8-methoxy-1,7-naphthyridin-2-yl)amino)cyclohexyl)methyl)amino)pyrimidin-5-yl)(morpholino)methanone]	0.191 µM	0.194 µM
O=C(Nc1cnc(NC[C@H]2CC[C@H](Nc3ccc4ccnc(Cl)c4n3)CC2)nc1)OCC1COC1 [Compound C18, Oxetan-3-ylmethyl (2-((((1,4-trans)-4-((8-chloro-1,7-naphthyridin-2-yl)amino)cyclohexyl)methyl)amino)pyrimidin-5-yl)carbamate]	0.039 µM	0.028 µM
COc1nccc2ccc(N[C@H]3CC[C@H](CNc4ncc(C(=O)NCC(C)O)cn4)CC3)nc12 (stereo partly drawn) [Compound C9, N-(2-hydroxypropyl)-2-((((1,4-trans)-4-((8-methoxy-1,7-naphthyridin-2-yl)amino)cyclohexyl)methyl)amino)pyrimidine-5-carboxamide]	0.061 µM	0.105 µM
O=C(c1cnc(NC[C@H]2CC[C@H](Nc3ccc4ccnc(Cl)c4n3)CC2)nc1)N1CCNCC1 [Compound C24, (2-((((1,4-trans)-4-((8-chloro-1,7-naphthyridin-2-yl)amino)cyclohexyl)methyl)amino)pyrimidin-5-yl)(piperazin-1-yl)methanone]	0.296 µM	0.112 µM
CS(=O)(=O)N1CCN(Cc2cnc(NC[C@H]3CC[C@H](Nc4ccc5ccnc(Cl)c5n4)CC3)nc2)CC1 [Compound C26, 8-chloro-N-((1,4-trans)-4-(((5-((4-(methylsulfonyl)piperazin-1-yl)methyl)pyrimidin-2-yl)amino)methyl)cyclohexyl)-1,7-naphthyridin-2-amine]	0.006 µM	0.012 µM
O=C(NC1COC1)C(CO)c1cnc(NC[C@H]2CC[C@H](Nc3ccc4ccnc(Cl)c4n3)CC2)nc1 (stereo partly drawn) [Compound C72, 2-(2-((((1,4-trans)-4-((8-chloro-1,7-naphthyridin-2-yl)amino)cyclohexyl)methyl)amino)pyrimidin-5-yl)-3-hydroxy-N-(oxetan-3-yl)propanamide]	0.056 µM	0.049 µM
O=S1(=O)CCN(Cc2cnc(NC[C@H]3CC[C@H](Nc4ccc5ccnc(Cl)c5n4)CC3)nc2)CC1 [Compound C30, 4-((2-((((1,4-trans)-4-((8-chloro-1,7-naphthyridin-2-yl)amino)cyclohexyl)methyl)amino)pyrimidin-5-yl)methyl)thiomorpholine 1,1-dioxide]	0.007 µM	0.017 µM
2-methoxyethyl (2-((((1,4-trans)-4-((8-chloro-1,7-naphthyridin-2-yl)amino)cyclohexyl)methyl)amino)pyrimidin-5-yl)carbamate [Compound C16]	0.027 µM	0.015 µM
COc1nccc2ccc(N[C@H]3CC[C@H](CNc4ncc(NC(=O)C5CN(C)C5)cn4)CC3)nc12 [Compound C3, N-(2-((((1,4-trans)-4-((8-methoxy-1,7-naphthyridin-2-yl)amino)cyclohexyl)methyl)amino)pyrimidin-5-yl)-1-methylazetidine-3-carboxamide]	0.025 µM	0.054 µM
COc1nccc2ccc(N[C@H]3CC[C@H](CNc4ncc(-c5ncn[nH]5)cn4)CC3)nc12 [Compound C12, N-((1,4-trans)-4-(((5-(1H-1,2,4-triazol-5-yl)pyrimidin-2-yl)amino)methyl)cyclohexyl)-8-methoxy-1,7-naphthyridin-2-amine]	0.052 µM	0.075 µM
CNc1nccc2ccc(N[C@H]3CC[C@H](CNc4ncc(N)cn4)CC3)nc12 [Compound C62, N^2-((1,4-trans)-4-(((5-aminopyrimidin-2-yl)amino)methyl)cyclohexyl)-N^8-methyl-1,7-naphthyridine-2,8-diamine]	0.031 µM	0.149 µM
CNc1nccc2ccc(N[C@H]3CC[C@H](CNc4ncc(NC(C)=O)cn4)CC3)nc12 [Compound C63, N-(2-((((1,4-trans)-4-((8-(methylamino)-1,7-naphthyridin-2-yl)amino)cyclohexyl)methyl)amino)pyrimidin-5-yl)acetamide]	0.037 µM	0.096 µM
O=C(c1cnc(NC[C@H]2CC[C@H](Nc3ccc4ccnc(Cl)c4n3)CC2)nc1)N1CCOCC1 [Compound C22, (2-((((1,4-trans)-4-((8-chloro-1,7-naphthyridin-2-yl)amino)cyclohexyl)methyl)amino)pyrimidin-5-yl)(morpholino)methanone]	0.188 µM	0.046 µM
O=C(CO)Nc1cnc(NC[C@H]2CC[C@H](Nc3ccc4ccnc(Cl)c4n3)CC2)nc1 [Compound C19, N-(2-((((1,4-trans)-4-((8-chloro-1,7-naphthyridin-2-yl)amino)cyclohexyl)methyl)amino)pyrimidin-5-yl)-2-hydroxyacetamide]	0.069 µM	–

Continued, values first:

IC50 (EZH2)	IC50 [1]	Compound
0.044 µM	0.042 µM	OC1CC(NCc2cnc(NC[C@H]3CC[C@H](Nc4ccc5ccnc(Cl)c5n4)CC3)nc2)C1 (stereo partly drawn) [Compound C33, 3-(((2-((((1,4-trans)-4-((8-chloro-1,7-naphthyridin-2-yl)amino)cyclohexyl)methyl)amino)pyrimidin-5-yl)methyl)amino)cyclobutan-1-ol]
0.033 µM	0.045 µM	O=C(NCc1cnc(NC[C@H]2CC[C@H](Nc3ccc4ccnc(Cl)c4n3)CC2)nc1)C1COC1 [Compound C59, N-((2-((((1,4-trans)-4-((8-chloro-1,7-naphthyridin-2-yl)amino)cyclohexyl)methyl)amino)pyrimidin-5-yl)methyl)oxetane-3-carboxamide]
0.032 µM	0.051 µM	CC1(NCCc2cnc(NC[C@H]3CC[C@H](Nc4ccc5ccnc(Cl)c5n4)CC3)nc2)COC1 [Compound C47, 8-chloro-N-((1,4-trans)-4-(((5-(2-((3-methyloxetan-3-yl)amino)ethyl)pyrimidin-2-yl)amino)methyl)cyclohexyl)-1,7-naphthyridin-2-amine]
0.163 µM	0.054 µM	O=C(Cc1cnc(NC[C@H]2CC[C@H](Nc3ccc4ccnc(Cl)c4n3)CC2)nc1)NC1CCC1 [Compound C44, 2-(2-((((1,4-trans)-4-((8-chloro-1,7-naphthyridin-2-yl)amino)cyclohexyl)methyl)amino)pyrimidin-5-yl)-N-cyclobutylacetamide]
0.022 µM	0.02 µM	OC1CN(Cc2cnc(NC[C@H]3CC[C@H](Nc4ccc5ccnc(Cl)c5n4)CC3)nc2)C1 [Compound C29, 1-((2-((((1,4-trans)-4-((8-chloro-1,7-naphthyridin-2-yl)amino)cyclohexyl)methyl)amino)pyrimidin-5-yl)methyl)azetidin-3-ol]
0.498 µM	0.079 µM	COC1CC(NCc2cnc(NC[C@H]3CC[C@H](Nc4ccc5ccnc(Cl)c5n4)CC3)nc2)C1 (stereo partly drawn) [Compound C32, 8-chloro-N-((1,4-trans)-4-(((5-(((3-methoxycyclobutyl)amino)methyl)pyrimidin-2-yl)amino)methyl)cyclohexyl)-1,7-naphthyridin-2-amine]
0.285 µM	0.023 µM	O=C(NC1COC1)c1cnc(NC[C@H]2CC[C@H](Nc3ccc4ccnc(Cl)c4n3)CC2)nc1 [Compound C25, 2-((((1,4-trans)-4-((8-chloro-1,7-naphthyridin-2-yl)amino)cyclohexyl)methyl)amino)-N-(oxetan-3-yl)pyrimidine-5-carboxamide]
0.024 µM	–	Clc1nccc2ccc(NC3CCC(CNc4ncc(COC5COC5)cn4)CC3)nc12 (stereo not drawn) [Compound C35, 8-chloro-N-((1,4-trans)-4-(((5-((oxetan-3-yloxy)methyl)pyrimidin-2-yl)amino)methyl)cyclohexyl)-1,7-naphthyridin-2-amine]
